# Reference: patent publication US20250288561A1, “NEZULCITINIB FOR DELIVERY BY NEBULIZED ORAL INHALATION” (THERAVANCE BIOPHARMA R&D IP, LLC, priority 2022, published 2025)
# Key:
# JAK3 = target: T1, JAK3 (Homo sapiens, UniProt P52333); experiment: JAK enzyme inhibition; format: biochemical
# T1 sequence (P52333 1-1124): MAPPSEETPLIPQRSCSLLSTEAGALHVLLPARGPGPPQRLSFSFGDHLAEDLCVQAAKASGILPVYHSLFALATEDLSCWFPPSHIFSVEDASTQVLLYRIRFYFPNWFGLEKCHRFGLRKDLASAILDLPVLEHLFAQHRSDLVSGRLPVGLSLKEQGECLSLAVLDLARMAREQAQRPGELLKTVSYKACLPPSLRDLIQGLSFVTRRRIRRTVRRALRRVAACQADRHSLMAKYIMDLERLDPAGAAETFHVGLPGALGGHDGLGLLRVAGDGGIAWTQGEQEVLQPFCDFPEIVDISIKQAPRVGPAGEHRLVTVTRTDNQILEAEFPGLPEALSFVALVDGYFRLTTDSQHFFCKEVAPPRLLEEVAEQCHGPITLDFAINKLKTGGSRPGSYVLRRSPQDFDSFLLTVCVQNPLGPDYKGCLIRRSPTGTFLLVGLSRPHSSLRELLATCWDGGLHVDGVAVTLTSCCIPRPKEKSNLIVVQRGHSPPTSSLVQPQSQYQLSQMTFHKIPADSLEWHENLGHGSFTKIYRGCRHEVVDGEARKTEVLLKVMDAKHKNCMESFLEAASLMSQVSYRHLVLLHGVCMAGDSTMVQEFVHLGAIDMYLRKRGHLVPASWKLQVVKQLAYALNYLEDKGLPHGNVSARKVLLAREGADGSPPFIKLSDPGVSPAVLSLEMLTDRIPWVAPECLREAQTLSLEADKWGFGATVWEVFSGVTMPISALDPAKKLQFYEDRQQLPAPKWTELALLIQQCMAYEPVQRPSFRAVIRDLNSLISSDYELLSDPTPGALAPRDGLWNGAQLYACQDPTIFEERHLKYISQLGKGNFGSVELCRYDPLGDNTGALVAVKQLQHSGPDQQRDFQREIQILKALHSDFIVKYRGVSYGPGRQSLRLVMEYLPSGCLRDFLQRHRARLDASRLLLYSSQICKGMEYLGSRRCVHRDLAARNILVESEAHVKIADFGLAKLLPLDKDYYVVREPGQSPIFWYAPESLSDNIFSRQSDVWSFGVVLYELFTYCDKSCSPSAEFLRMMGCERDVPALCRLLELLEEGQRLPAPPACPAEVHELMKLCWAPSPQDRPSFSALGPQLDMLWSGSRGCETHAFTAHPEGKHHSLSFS
smiles,measurement,setting,value
"CCc1cc(O)ccc1-c1ccc2c(-c3nc4c([nH]3)CN(C(C)C)[C@H](C(=O)N3CC(N(C)C)C3)C4)n[nH]c2c1 [Compound 1, (S)-(3-(dimethylamino)azetidin-1-yl)(2-(6-(2-ethyl-4-hydroxyphenyl)-1H-indazol-3-yl)-5-isopropyl-4,5,6,7-tetrahydro-3H-imidazo[4,5-c]pyridin-6-yl)methanone]",inhibition of JAK3,JAK3,potent inhibitor
same,plasma concentrations with low-flow nasal oxygen therapy compared to healthy subjects without supplemental oxygen therapy,"human, in vivo",similar
same,plasma exposure,phase 2,low
